Values belong to the compound of their own block, whether it stands above or below them.
Key:
PmGH [1] = molecular target: T1, PmGH (Persephonella marina, UniProt C0QQ26, C41A/C197A); assay: X-ray crystal structure (crystal soak), […] A; type: binding; conditions: crystals soaked with 30 mM GMP; tri-iron centre intact; active site, phosphate bridges M and H iron sites; monomer B only
T1 construct: gene PERMA_0986; GAF + HD-GYP domains; synthetic gene in pET47b, E. coli BL21(DE3); N-terminal His6 tag cut with HRV 3C; homodimer; tri-iron centre

PmGH [2] = molecular target: T2, PmGH (Persephonella marina, UniProt C0QQ26, C41A/C197A/D305A); assay: HPLC phosphodiesterase assay; type: biochemical; conditions: 100 uM c-di-GMP, pH 7.6, 10 mM MgCl2, 10 mM MnCl2, 0.5 mM EDTA, 37 C
T2 construct: gene PERMA_0986; GAF + HD-GYP domains; synthetic gene in pET47b, E. coli BL21(DE3); N-terminal His6 tag cut with HRV 3C; homodimer; tri-iron centre

PmGH [3] = molecular target: T3, PmGH (Persephonella marina, UniProt C0QQ26, C41A/E185A/C197A); assay: HPLC phosphodiesterase assay; type: biochemical; conditions: 100 uM c-di-GMP, pH 7.6, 10 mM MgCl2, 10 mM MnCl2, 0.5 mM EDTA, 37 C
T3 construct: gene PERMA_0986; GAF + HD-GYP domains; synthetic gene in pET47b, E. coli BL21(DE3); N-terminal His6 tag cut with HRV 3C; homodimer; tri-iron centre

PmGH [4] = molecular target: T1, PmGH; assay: X-ray crystal structure (crystal soak), […] A; hydrolysis in solution shown by HPLC; type: binding; conditions: crystals soaked with 25 mM c-di-GMP and 100 mM EDTA; only G-site Fe bound; bound to monomer B only, HD-GYP active site
[5] = molecular target: GAF/HD-GYP protein from Persephonella marina EX-H1 (PmGH) (Persephonella marina EX-H1) (UniProt C0QQ26); assay: crystal structure; hanging drop vapour diffusion, 0.1 M MES pH 6.5, 0.9 M succinic acid, 2% PEG 2000; space group I222 with one dimer in the asymmetric unit; native structure at 2.03 Å

T1 sequence (C0QQ26 entry or part of it C41A/C197A): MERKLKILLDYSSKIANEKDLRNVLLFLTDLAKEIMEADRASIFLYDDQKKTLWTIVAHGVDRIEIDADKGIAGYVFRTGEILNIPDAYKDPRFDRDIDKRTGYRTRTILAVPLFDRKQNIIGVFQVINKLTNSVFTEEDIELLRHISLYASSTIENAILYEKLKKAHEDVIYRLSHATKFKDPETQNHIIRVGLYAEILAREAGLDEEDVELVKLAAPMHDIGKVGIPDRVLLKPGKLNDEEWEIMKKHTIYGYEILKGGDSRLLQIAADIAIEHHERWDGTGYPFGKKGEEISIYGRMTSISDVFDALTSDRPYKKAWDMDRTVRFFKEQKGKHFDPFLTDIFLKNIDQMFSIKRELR
T2 sequence (C0QQ26 entry or part of it C41A/C197A/D305A): as the sequence (C0QQ26 entry or part of it C41A/C197A) above, with D305A counted along it
T3 sequence (C0QQ26 entry or part of it C41A/E185A/C197A): as the sequence (C0QQ26 entry or part of it C41A/C197A) above, with E185A counted along it

Compound: Nc1nc2c(ncn2[C@@H]2O[C@H](COP(=O)(O)O)[C@@H](O)[C@H]2O)c(=O)[nH]1 [GMP]
- X-ray crystal structure (crystal soak), 2.55 A (PmGH [1]): Crystal soaks with GMP and c‐di‐GMP gave identical structures of PmGH in complex with GMP

Compound: Nc1nc2c(ncn2[C@@H]2O[C@@H]3COP(=O)(O)O[C@H]4[C@@H](O)[C@H](n5cnc6c(=O)[nH]c(N)nc65)O[C@@H]4COP(=O)(O)O[C@H]3[C@H]2O)c(=O)[nH]1 [c-di-GMP]
- c-di-GMP hydrolysis (PmGH [2]): marked reduction in their ability to hydrolyse c‐di‐GMP, hydrolysis of c‐di‐GMP is still detected
- c-di-GMP hydrolysis (PmGH [3]): marked reduction in their ability to hydrolyse c‐di‐GMP, hydrolysis of c‐di‐GMP is still detected
- X-ray crystal structure (crystal soak), 2.68 A; hydrolysis in solution shown by (PmGH [4]): revealed well defined difference electron density for a bound c‐di‐GMP molecule at the active site

- stoichiometry N [5]: 2
Compound: GAF/HD-GYP protein from Persephonella marina EX-H1 (PmGH) (from UniProt C0QQ26 2-363) (enzyme)

Reference: article PMC4159591, “Crystal structure of an HD‐GYP domain cyclic‐di‐GMP phosphodiesterase reveals an enzyme with a novel trinuclear catalytic iron centre” (Molecular Microbiology, 2013)
